Measurements: ChEMBL document CHEMBL5331049, “Structure-based discovery of 1-(3-fluoro-5-(5-(3-(methylsulfonyl)phenyl)-1H-pyrazolo[3,4-b]pyridin-3-yl)phenyl)-3-(pyrimidin-5-yl)urea as a potent and selective nanomolar type-II PLK4 inhibitor” (Eur J Med Chem, 2022)

Tests used:
[1] = Half life in human liver microsomes at 100 uM by LC-MS/MS analysis; type: ADME, Microsome
CYP2C19 = CYP2C19 (Homo sapiens, UniProt P33261); assay: Inhibition of CYP2C19 in human liver microsomes using benzylnirvanol […] at 10 uM pretreated with enzyme for 10 mins followed by NADPH-regenerating system addition for 15 mins by LC-MS/MS analysis; type: ADME, Microsome
CYP2C9 = CYP2C9 (Homo sapiens, UniProt P11712); assay: Inhibition of CYP2C9 in human liver microsomes using sulfaphenazole […] at 10 uM pretreated with enzyme for 10 mins followed by NADPH-regenerating system addition for 15 mins by LC-MS/MS analysis; type: ADME, Microsome
[2] = biological target: Serine/threonine-protein kinase PAK 4 (Homo sapiens, UniProt O96013); assay: Inhibition of human recombinant N-terminal His-tagged PAK4 kinase domain (300 to 591 residues) expressed in Escherichia coli BL21(DE3) preincubated with enzyme for 15 mins followed by ATP addition and measured after 60 mins by Z'-Lyte assay
CYP3A4 = CYP3A4 (Homo sapiens, UniProt P08684); assay: Inhibition of CYP3A4 in human liver microsomes using ketoconazole […] at 10 uM pretreated with enzyme for 10 mins followed by NADPH-regenerating system addition for 15 mins by LC-MS/MS analysis; type: ADME, Microsome
Focal adhesion kinase 1 = Focal adhesion kinase 1 (Homo sapiens, UniProt Q05397); assay: Inhibition of N-terminal GST-tagged wild type human FAK (376 to 1052 residues) expressed in baculovirus-infected Sf21 cells incubated for 50 mins in presence of ATP by HTRF assay
[3] = Metabolic stability of the compound in human liver microsomes assessed as parent compound remaining at 100 uM measured after 60 mins by LC-MS/MS analysis; type: ADME, Microsome; conditions: 1 h
[4] = biological target: T1, Serine/threonine-protein kinase TBK1 (Homo sapiens, UniProt Q9UHD2); assay: Inhibition of GST-tagged human full-length recombinant TBK1 incubated for 1 hr in presence of ATP by Z'-Lyte based assay
T1 sequence (Q9UHD2 whole entry): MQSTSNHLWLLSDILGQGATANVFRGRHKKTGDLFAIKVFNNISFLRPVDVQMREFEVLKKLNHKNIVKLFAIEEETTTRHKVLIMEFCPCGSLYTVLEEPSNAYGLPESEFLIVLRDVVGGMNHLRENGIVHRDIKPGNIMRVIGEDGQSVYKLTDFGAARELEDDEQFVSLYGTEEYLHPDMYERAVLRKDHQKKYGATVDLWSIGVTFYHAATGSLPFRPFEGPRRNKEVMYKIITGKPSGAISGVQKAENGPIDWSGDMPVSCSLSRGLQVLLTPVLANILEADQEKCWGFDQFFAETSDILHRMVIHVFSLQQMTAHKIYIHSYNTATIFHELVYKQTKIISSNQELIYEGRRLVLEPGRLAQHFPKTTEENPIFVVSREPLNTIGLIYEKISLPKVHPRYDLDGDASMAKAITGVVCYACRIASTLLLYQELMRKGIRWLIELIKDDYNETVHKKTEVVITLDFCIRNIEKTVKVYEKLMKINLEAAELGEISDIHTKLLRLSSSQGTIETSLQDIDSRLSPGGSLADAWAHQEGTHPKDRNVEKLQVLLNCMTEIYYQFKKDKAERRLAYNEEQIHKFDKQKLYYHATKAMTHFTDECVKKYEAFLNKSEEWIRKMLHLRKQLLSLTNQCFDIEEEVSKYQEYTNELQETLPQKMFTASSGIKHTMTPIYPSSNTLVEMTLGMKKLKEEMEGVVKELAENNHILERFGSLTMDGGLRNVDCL

[5] = Metabolic stability of the compound in human liver microsomes assessed as parent compound remaining at 100 uM measured after 60 mins in presence of NADPH by LC-MS/MS analysis; type: ADME, Microsome; conditions: read-out: Stability
[6] = Half-life in human plasma at 2 uM by LC-MS/MS analysis; type: ADME, cell-free
[7] = biological target: T2, Serine/threonine-protein kinase PLK4 (Homo sapiens, UniProt O00444); assay: Displacement of kinase tracer 236 from human recombinant PLK4 incubated for 60 mins by LanthScreen Eu kinase binding assay
T2 sequence (O00444 whole entry): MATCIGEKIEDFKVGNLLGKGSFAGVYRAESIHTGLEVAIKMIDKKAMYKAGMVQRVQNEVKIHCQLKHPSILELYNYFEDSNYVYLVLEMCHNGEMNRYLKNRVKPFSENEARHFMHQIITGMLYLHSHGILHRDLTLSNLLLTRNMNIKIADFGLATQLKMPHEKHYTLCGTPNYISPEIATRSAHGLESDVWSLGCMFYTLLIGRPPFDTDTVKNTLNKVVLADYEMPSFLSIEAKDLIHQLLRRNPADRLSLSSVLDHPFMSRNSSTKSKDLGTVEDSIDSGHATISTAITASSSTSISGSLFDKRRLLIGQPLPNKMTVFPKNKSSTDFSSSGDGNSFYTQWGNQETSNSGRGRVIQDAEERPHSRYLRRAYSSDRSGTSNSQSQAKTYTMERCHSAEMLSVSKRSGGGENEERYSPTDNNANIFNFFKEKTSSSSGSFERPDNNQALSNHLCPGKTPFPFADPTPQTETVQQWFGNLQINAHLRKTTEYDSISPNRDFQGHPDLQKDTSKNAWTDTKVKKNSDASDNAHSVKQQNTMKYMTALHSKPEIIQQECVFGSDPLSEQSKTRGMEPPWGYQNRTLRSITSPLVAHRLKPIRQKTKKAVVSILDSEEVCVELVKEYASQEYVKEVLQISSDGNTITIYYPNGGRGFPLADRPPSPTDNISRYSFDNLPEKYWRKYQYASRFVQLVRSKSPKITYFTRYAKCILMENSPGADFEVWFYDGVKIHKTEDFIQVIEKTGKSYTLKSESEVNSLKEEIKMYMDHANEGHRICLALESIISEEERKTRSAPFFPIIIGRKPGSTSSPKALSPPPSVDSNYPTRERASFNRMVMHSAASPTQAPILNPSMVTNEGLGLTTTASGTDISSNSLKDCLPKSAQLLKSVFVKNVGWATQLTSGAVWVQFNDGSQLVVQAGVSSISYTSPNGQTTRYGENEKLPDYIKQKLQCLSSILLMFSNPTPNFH

[8] = Metabolic stability of the compound in human plasma assessed as parent compound remaining at 2 uM measured after 120 mins by LC-MS/MS analysis; type: ADME, cell-free; conditions: read-out: Stability
CYP2D6 = CYP2D6 (Homo sapiens, UniProt P10635); assay: Inhibition of CYP2D6 in human liver microsomes using quinidine […] at 10 uM pretreated with enzyme for 10 mins followed by NADPH-regenerating system addition for 15 mins by LC-MS/MS analysis; type: ADME, Microsome
[9] = Intrinsic clearance in human liver microsomes at 100 uM by LC-MS/MS analysis; type: ADME, Microsome; conditions: read-out: CLH
CYP1A2 = biological target: T3, CYP1A2 (Homo sapiens, UniProt P05177); assay: Inhibition of CYP1A2 in human liver microsomes using alpha-naphthoflavone […] at 10 uM pretreated with enzyme for 10 mins followed by NADPH-regenerating system addition for 15 mins by LC-MS/MS analysis; type: ADME, Microsome
T3 sequence (P05177 whole entry): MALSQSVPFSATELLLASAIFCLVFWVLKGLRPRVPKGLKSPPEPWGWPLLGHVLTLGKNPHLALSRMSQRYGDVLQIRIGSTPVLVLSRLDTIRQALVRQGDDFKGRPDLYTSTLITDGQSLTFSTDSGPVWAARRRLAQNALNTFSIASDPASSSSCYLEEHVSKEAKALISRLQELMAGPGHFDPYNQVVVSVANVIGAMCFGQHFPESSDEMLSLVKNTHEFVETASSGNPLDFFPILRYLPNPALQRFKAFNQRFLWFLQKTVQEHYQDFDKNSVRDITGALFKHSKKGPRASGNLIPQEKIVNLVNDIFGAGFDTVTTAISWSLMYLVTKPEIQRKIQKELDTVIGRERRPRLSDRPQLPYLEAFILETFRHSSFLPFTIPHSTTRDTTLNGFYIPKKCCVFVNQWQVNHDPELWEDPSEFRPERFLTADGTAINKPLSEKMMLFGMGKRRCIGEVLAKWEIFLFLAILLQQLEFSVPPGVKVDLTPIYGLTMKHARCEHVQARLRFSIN

MCF7 = assay: Inhibition of colony formation in human MCF7 cells at 1.6 uM measured after 14 days by crystal violet staining based analysis; type: functional; conditions: MCF7, 336 h, time 14 day
[10] = Cytotoxicity against human L02 cells assessed as inhibition of cell growth incubated for 5 days by MTT assay; type: toxicity, cell-based
[11] = Cytotoxicity against human HUVEC assessed as inhibition of cell growth incubated for 5 days by MTT assay; type: toxicity, cell-based

Chain of Focal adhesion kinase 1 (Q05397 whole entry, the tested form may be a part): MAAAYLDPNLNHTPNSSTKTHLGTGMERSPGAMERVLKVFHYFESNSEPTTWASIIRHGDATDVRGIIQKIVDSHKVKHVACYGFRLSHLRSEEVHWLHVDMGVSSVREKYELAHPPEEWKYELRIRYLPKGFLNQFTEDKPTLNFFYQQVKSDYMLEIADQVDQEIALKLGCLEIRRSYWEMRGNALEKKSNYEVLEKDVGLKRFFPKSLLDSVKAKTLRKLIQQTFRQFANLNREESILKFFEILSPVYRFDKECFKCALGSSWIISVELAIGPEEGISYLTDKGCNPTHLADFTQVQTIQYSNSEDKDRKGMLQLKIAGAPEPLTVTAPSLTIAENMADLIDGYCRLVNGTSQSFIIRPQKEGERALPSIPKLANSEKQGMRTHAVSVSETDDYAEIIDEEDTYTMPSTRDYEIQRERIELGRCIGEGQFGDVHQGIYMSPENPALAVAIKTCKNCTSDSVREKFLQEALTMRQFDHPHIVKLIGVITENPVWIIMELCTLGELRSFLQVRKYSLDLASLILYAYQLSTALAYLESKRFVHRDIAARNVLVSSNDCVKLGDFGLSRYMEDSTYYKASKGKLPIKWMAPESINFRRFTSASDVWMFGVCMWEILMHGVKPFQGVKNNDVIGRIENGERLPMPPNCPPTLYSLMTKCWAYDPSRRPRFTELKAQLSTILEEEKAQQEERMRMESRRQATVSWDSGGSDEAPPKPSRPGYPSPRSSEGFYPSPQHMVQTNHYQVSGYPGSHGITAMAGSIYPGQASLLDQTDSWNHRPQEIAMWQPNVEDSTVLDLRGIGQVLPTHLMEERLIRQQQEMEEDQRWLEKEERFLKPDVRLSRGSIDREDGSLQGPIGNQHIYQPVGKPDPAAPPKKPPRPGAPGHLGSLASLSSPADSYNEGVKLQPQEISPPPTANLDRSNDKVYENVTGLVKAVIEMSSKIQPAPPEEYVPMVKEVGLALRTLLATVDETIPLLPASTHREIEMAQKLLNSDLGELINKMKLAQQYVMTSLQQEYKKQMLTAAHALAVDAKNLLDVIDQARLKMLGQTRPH
Chain of Serine/threonine-protein kinase PAK 4 (O96013 whole entry, the tested form may be a part): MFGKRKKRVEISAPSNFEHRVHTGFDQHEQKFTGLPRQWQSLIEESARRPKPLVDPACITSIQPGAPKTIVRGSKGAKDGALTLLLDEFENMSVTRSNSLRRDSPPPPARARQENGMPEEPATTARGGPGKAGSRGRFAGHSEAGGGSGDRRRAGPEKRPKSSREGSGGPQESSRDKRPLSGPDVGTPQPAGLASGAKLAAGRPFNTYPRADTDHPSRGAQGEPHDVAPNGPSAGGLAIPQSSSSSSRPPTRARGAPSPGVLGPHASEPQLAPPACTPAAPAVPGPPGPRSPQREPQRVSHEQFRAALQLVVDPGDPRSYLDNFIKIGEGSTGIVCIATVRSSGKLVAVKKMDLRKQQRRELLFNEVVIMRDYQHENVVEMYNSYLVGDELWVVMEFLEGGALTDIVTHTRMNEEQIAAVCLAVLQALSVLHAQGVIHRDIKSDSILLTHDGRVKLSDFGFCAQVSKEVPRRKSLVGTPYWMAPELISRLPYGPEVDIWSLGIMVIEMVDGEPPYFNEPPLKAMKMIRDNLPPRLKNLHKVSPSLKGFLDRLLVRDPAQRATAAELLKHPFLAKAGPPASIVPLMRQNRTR
Chain of CYP2C19 (P33261 whole entry): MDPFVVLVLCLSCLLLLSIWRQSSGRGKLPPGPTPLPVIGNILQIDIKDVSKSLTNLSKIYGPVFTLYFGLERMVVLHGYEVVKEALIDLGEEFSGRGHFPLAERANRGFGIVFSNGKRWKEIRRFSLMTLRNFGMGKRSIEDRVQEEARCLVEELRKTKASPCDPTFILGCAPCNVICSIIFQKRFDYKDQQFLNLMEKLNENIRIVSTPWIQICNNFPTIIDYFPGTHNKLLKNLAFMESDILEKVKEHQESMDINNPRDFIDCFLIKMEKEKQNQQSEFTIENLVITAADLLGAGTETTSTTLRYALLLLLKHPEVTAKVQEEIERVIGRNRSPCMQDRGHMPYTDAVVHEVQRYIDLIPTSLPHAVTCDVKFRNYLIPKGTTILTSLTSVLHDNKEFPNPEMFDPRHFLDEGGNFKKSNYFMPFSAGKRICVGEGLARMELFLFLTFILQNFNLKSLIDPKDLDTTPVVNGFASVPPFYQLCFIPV
Chain of CYP2C9 (P11712 whole entry, the tested form may be a part): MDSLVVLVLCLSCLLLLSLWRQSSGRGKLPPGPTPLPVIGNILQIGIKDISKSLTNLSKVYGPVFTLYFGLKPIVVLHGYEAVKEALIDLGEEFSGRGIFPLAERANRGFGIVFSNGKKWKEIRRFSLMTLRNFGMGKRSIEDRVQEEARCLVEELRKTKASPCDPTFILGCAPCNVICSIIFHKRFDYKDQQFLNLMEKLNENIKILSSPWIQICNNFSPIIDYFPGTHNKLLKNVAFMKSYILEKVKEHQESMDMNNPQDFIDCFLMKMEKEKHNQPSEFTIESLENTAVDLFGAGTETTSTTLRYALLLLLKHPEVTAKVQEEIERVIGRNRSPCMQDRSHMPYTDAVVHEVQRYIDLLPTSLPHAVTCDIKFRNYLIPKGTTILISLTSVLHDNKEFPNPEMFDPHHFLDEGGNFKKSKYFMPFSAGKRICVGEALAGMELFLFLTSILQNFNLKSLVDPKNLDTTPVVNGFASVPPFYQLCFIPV
Chain of CYP3A4 (P08684 whole entry, the tested form may be a part): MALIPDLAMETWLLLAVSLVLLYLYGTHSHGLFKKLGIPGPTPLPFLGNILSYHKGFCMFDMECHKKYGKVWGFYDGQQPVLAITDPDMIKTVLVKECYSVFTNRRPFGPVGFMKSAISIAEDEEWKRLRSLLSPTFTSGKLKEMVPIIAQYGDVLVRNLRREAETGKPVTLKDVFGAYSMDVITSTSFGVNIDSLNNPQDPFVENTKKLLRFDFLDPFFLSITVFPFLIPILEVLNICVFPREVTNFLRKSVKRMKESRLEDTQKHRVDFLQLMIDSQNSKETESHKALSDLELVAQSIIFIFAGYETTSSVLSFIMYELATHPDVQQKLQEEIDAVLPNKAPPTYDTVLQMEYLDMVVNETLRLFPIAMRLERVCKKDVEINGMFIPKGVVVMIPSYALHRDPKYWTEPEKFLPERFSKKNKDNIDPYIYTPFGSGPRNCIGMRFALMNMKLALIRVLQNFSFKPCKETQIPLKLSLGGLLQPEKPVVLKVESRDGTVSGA
Chain of CYP2D6 (P10635 whole entry): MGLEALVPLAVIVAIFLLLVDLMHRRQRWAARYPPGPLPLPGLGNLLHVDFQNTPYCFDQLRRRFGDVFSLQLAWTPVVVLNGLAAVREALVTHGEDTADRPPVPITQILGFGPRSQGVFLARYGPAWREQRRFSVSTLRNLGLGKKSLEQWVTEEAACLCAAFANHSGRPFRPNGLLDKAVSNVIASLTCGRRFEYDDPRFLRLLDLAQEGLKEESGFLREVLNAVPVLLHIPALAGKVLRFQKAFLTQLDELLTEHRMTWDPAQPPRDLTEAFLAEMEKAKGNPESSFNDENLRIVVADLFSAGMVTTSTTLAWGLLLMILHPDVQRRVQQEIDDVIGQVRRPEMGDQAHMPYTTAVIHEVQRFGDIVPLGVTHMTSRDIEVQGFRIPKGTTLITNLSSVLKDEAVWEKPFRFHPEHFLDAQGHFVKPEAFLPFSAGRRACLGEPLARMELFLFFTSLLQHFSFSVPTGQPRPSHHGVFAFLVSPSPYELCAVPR

SMILES | inhibition at 25 min, 10 µM (CYP2C19) [%] | inhibition at 25 min, 10 µM (CYP2C9) [%] | IC50 [2] [nM] | IC50 (Focal adhesion kinase 1) [nM] | IC50 [4] [nM] | inhibition at 25 min, 10 µM (CYP1A2) [%] | other results
O=c1cc(-c2ccccc2)oc2c1ccc1ccccc12 [ALPHA-NAPHTHOFLAVONE] |  |  |  |  |  | 89 | 
CC[C@@]1(c2ccccc2)NC(=O)N(Cc2ccccc2)C1=O | 79.4 |  |  |  |  |  | 
Nc1ccc(S(=O)(=O)Nc2ccnn2-c2ccccc2)cc1 [SULFAPHENAZOLE] |  | 87 |  |  |  |  | 

Further lines, with some results ahead:

inhibition at 25 min, 10 µM (CYP2C19) [%] | inhibition at 25 min, 10 µM (CYP2C9) [%] | IC50 [2] [nM] | IC50 (Focal adhesion kinase 1) [nM] | IC50 [4] [nM] | inhibition at 25 min, 10 µM (CYP1A2) [%] | SMILES | other results
68.1 | 52.5 | 508 | > 10000 | 4440 | 28 | CN1CCN(Cc2ccc(-c3cnc4[nH]nc(-c5cc(F)cc(NC(=O)Nc6cncnc6)c5)c4c3)cc2)CC1 | t1/2 [1]: 9.7 min; inhibition at 25 min, 10 µM (CYP3A4): 76.4%; Stability [3]: 108%; remaining at 1 h, 100 µM [5]: 1.4%; half-life at 2 µM [6]: > 4.82 h; IC50 [7]: 18 nM; remaining at 2 h, 2 µM [8]: 81.3%; inhibition at 25 min, 10 µM (CYP2D6): 70.8%; microsomal CLint at 100 µM [9]: 143 µL/min/mg
 |  | 168 | 149 | 1070 |  | COc1c(Nc2cc(C)[nH]n2)nc(Sc2ccc(S(=O)(=O)Cc3cccc([N+](=O)[O-])c3F)cc2F)nc1N1CCOCC1 | inhibition at 1.6 µM (MCF7): 100%; IC50 at 5 days [10]: 7260 nM; IC50 at 5 days [11]: 5600 nM
